Experiments:
Assay type in all cases: in vivo
[1] = system: barnyardgrass (Echinochloa crus-galli); assay: Test A pre/postemergence
Outline: (§1)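 Greenhouse herbicide test with preemergence directed soil spray and postemergence foliar spray at the 1- to 2-leaf stage; visual control rating 0–100 versus untreated at ~10 days.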

[2] = system: crabgrass (Digitaria sanguinalis); assay: Test A pre/postemergence
Outline: as §1

[3] = system: morningglory (Ipomoea spp.); assay: Test A pre/postemergence
Outline: as §1

[4] = system: velvetleaf (Abutilon theophrasti); assay: Test A pre/postemergence
Outline: as §1

[5] = system: giant foxtail (Setaria faberi); assay: Test A pre/postemergence
Outline: as §1

[6] = system: redroot pigweed (Amaranthus retroflexus); assay: Test A pre/postemergence
Outline: as §1

[7] = system: smallflower umbrella sedge (Cyperus difformis); assay: Test E flooded paddy water application; settings: Flood, 21 days, scale 0 to 100 (0 no effect, 100 complete control)
Outline: (§2)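 Weeds sown in sterilized Tama silt loam (2.6% organic matter), greenhouse 29.5/26.7° C, 16-h photoperiod; at 2.0–2.5-leaf stage pots flooded to 3 cm and compound added to paddy water. Visual rating vs untreated controls after 21 days, 0 (no effect) to 100 (complete control).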

[8] = system: late watergrass (Echinochloa oryzicola); assay: Test E flooded paddy water application; settings: Flood, 21 days, scale 0 to 100 (0 no effect, 100 complete control)
Outline: as §2

[9] = system: barnyardgrass (Echinochloa crus-galli); assay: Test E flooded paddy water application; settings: Flood, 21 days, scale 0 to 100 (0 no effect, 100 complete control)
Outline: as §2

[10] = system: purple redstem (Ammannia coccinea); assay: Test E flooded paddy water application; settings: Flood, 21 days, scale 0 to 100 (0 no effect, 100 complete control)
Outline: as §2

[11] = system: rice flatsedge (Cyperus iria); assay: Test E flooded paddy water application; settings: Flood, 21 days, scale 0 to 100 (0 no effect, 100 complete control)
Outline: as §2

[12] = system: transplanted rice seedlings (Oryza sativa cv. ‘Japonica-M202’); assay: Test E flooded paddy water application; settings: Flood, 21 days, scale 0 to 100 (0 no effect, 100 complete control)
Outline: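 Response scored visually on a 0–100 scale (100 = complete control) at 21 days against untreated pots. Treatment was into paddy water 3 cm deep over silt loam, with plants at the 2.0–2.5-leaf stage, grown under 16-h light at 29.5/26.7 °C day/night.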

[13] = system: early watergrass (Echinochloa oryzoides); assay: Test E flooded paddy water application; settings: Flood, 21 days, scale 0 to 100 (0 no effect, 100 complete control)
Outline: as §2

[14] = system: bearded (brdd.) sprangletop (Leptochloa fusca ssp. fascicularis); assay: Test E flooded paddy water application; settings: Flood, 21 days, scale 0 to 100 (0 no effect, 100 complete control)
Outline: as §2

[15] = system: water seeded rice seedlings (Oryza sativa cv. ‘Japonica-M202’); assay: Test E flooded paddy water application; settings: Flood, 21 days, scale 0 to 100 (0 no effect, 100 complete control)
Outline: as §2

[16] = system: ducksalad (Heteranthera limosa); assay: Test E flooded paddy water application; settings: Flood, 21 days, scale 0 to 100 (0 no effect, 100 complete control)
Outline: as §2

[17] = system: junglerice (Echinochloa colona); assay: Test E flooded paddy water application; settings: Flood, 21 days, scale 0 to 100 (0 no effect, 100 complete control)
Outline: as §2

[18] = Postemergence, 125 g ai/ha, 0 to 100 scale (0 no effect, 100 complete control)
[19] = Postemergence, 500 g ai/ha, 0 to 100 scale (0 no effect, 100 complete control)
[20] = Preemergence, 125 g ai/ha, 0 to 100 scale where 0 is no effect and 100 is complete control, approximately ten days
[21] = Preemergence, 500 g ai/ha, 0 to 100 scale where 0 is no effect and 100 is complete control, approximately ten days

`CCOC(=O)c1nc(-c2ccc(C)c(C)c2)nc(N)c1Br` [Compound 70] was tested, and the “Plant response rating, Barnyardgrass” value [1, 18] was 0, the “Plant response rating, Barnyardgrass” value [1, 19] was 0 and the “Plant response rating, Barnyardgrass” value [1, 20] was 0. For the same molecule, the “Plant response rating, Barnyardgrass” value [1, 21] was 0, the “Plant response rating, Crabgrass” value [2, 18] was 0 and the “Plant response rating, Crabgrass” value [2, 19] was 20. For the same molecule, the “Plant response rating, Crabgrass” value [2, 20] was 5, the “Plant response rating, Crabgrass” value [2, 21] was 20 and the “Plant response rating, Morningglory” value [3, 18] was 0. The “Plant response rating, Morningglory” value [3, 19] was 10, the “Plant response rating, Morningglory” value [3, 20] was 0 and the “Plant response rating, Morningglory” value [3, 21] was 0. For the same molecule, the “Plant response rating, Velvetleaf” value [4, 18] was 35, the “Plant response rating, Velvetleaf” value [4, 19] was 60 and the “Plant response rating, Velvetleaf” value [4, 20] was 20. The “Plant response rating, Velvetleaf” value [4, 21] was 35, the “Plant response rating, Foxtail, Giant” value [5, 18] was 0 and the “Plant response rating, Foxtail, Giant” value [5, 19] was 0. The “Plant response rating, Foxtail, Giant” value [5, 20] was 5, the “Plant response rating, Foxtail, Giant” value [5, 21] was 5 and the “Plant response rating, Pigweed” value [6, 18] was 15. The “Plant response rating, Pigweed” value [6, 19] was 20, the “Plant response rating, Pigweed” value [6, 20] was 0 and the “Plant response rating, Pigweed” value [6, 21] was 10. The “Sedge, Umbrella plant response rating” value ([7]; 32 g ai/ha) was 0, the “Sedge, Umbrella plant response rating” value ([7]; 64 g ai/ha) was 0 and the “Sedge, Umbrella plant response rating” value ([7]; 125 g ai/ha) was 0. For the same molecule, the “Sedge, Umbrella plant response rating” value ([7]; 250 g ai/ha) was 60, the “Plant response rating, Sedge, Umbrella” value ([7]; 16 g ai/ha) was 0 and the “Watergrass, Late plant response rating” value ([8]; 32 g ai/ha) was 0. The “Watergrass, Late plant response rating” value ([8]; 64 g ai/ha) was 0, the “Watergrass, Late plant response rating” value ([8]; 125 g ai/ha) was 0 and the “Watergrass, Late plant response rating” value ([8]; 250 g ai/ha) was 0. The “Plant response rating, Watergrass, Late” value ([8]; 16 g ai/ha) was 0, the “Barnyardgrass plant response rating” value ([9]; 32 g ai/ha) was 0 and the “Barnyardgrass plant response rating” value ([9]; 64 g ai/ha) was 0. The “Barnyardgrass plant response rating” value ([9]; 125 g ai/ha) was 0, the “Barnyardgrass plant response rating” value ([9]; 250 g ai/ha) was 0 and the “Plant response rating, Barnyardgrass” value ([9]; 16 g ai/ha) was 0. For the same molecule, the “Redstem plant response rating” value ([10]; 32 g ai/ha) was 0, the “Redstem plant response rating” value ([10]; 64 g ai/ha) was 0 and the “Redstem plant response rating” value ([10]; 125 g ai/ha) was 0. The “Redstem plant response rating” value ([10]; 250 g ai/ha) was 0, the “Plant response rating, Redstem” value ([10]; 16 g ai/ha) was 0 and the “Flatsedge, Rice plant response rating” value ([11]; 32 g ai/ha) was 0. For the same molecule, the “Flatsedge, Rice plant response rating” value ([11]; 64 g ai/ha) was 0, the “Flatsedge, Rice plant response rating” value ([11]; 125 g ai/ha) was 30 and the “Flatsedge, Rice plant response rating” value ([11]; 250 g ai/ha) was 65. The “Plant response rating, Flatsedge, Rice” value ([11]; 16 g ai/ha) was 0, the “Rice, Transplanted plant response rating” value ([12]; 32 g ai/ha) was 0 and the “Rice, Transplanted plant response rating” value ([12]; 64 g ai/ha) was 0. For the same molecule, the “Rice, Transplanted plant response rating” value ([12]; 125 g ai/ha) was 0, the “Rice, Transplanted plant response rating” value ([12]; 250 g ai/ha) was 0 and the “Plant response rating, Rice, Transplanted” value ([12]; 16 g ai/ha) was 0. The “Watergrass, Early plant response rating” value ([13]; 32 g ai/ha) was 0, the “Watergrass, Early plant response rating” value ([13]; 64 g ai/ha) was 0 and the “Watergrass, Early plant response rating” value ([13]; 125 g ai/ha) was 0. For the same molecule, the “Watergrass, Early plant response rating” value ([13]; 250 g ai/ha) was 0, the “Plant response rating, Watergrass, Early” value ([13]; 16 g ai/ha) was 0 and the “Sprangletop, Brdd. plant response rating” value ([14]; 32 g ai/ha) was 0. For the same molecule, the “Sprangletop, Brdd. plant response rating” value ([14]; 64 g ai/ha) was 0, the “Sprangletop, Brdd. plant response rating” value ([14]; 125 g ai/ha) was 0 and the “Sprangletop, Brdd. plant response rating” value ([14]; 250 g ai/ha) was 0. The “Plant response rating, Sprangletop, Brdd.” value ([14]; 16 g ai/ha) was 0, the “Rice, Water Seeded plant response rating” value ([15]; 32 g ai/ha) was 0 and the “Rice, Water Seeded plant response rating” value ([15]; 64 g ai/ha) was 0. The “Rice, Water Seeded plant response rating” value ([15]; 125 g ai/ha) was 0, the “Rice, Water Seeded plant response rating” value ([15]; 250 g ai/ha) was 0 and the “Plant response rating, Rice, Water Seeded” value ([15]; 16 g ai/ha) was 0. The “Ducksalad plant response rating” value ([16]; 32 g ai/ha) was 40, the “Ducksalad plant response rating” value ([16]; 64 g ai/ha) was 100 and the “Ducksalad plant response rating” value ([16]; 125 g ai/ha) was 100. The “Ducksalad plant response rating” value ([16]; 250 g ai/ha) was 100, the “Plant response rating, Ducksalad” value ([16]; 16 g ai/ha) was 0 and the “Junglerice plant response rating” value ([17]; 32 g ai/ha) was 0. For the same molecule, the “Junglerice plant response rating” value ([17]; 64 g ai/ha) was 0, the “Junglerice plant response rating” value ([17]; 125 g ai/ha) was 0 and the “Junglerice plant response rating” value ([17]; 250 g ai/ha) was 0. The “Plant response rating, Junglerice” value ([17]; 16 g ai/ha) was 0.

Reference: US8802597B2, “Herbicidal pyrimidines” (E I du Pont de Nemours and Company, priority 2003, dated 2014)
